Measured values reported in PMC8739347 (Tropical Medicine and Health, 2022).

Columns and labels:
Test in all cases: Antiviral activity assay in Vero E6 cells, qRT-PCR of supernatant
Type in all cases: cell-based
[1] = tested on: SARS-CoV-2 Beta variant (hCoV-19/Japan/TY8-612/2020); settings: Severe acute respiratory syndrome coronavirus 2, Vero C1008, compound concentration (for 5-ALA/SFC the 5-ALA concentration, ratio 4:1)
[2] = tested on: SARS-CoV-2 Gamma variant (hCoV-19/Japan/TY7-501/2020); settings: for IC50: Severe acute respiratory syndrome coronavirus 2, Vero C1008, Gamma, compound concentration (for 5-ALA/SFC the 5-ALA concentration, ratio 4:1)
[3] = tested on: SARS-CoV-2 Delta variant (hCoV-19/Japan/TY11-330-P1//2021); settings: for IC50: Severe acute respiratory syndrome coronavirus 2, Vero C1008, Delta, compound concentration (for 5-ALA/SFC the 5-ALA concentration, ratio 4:1)
[4] = tested on: SARS-CoV-2 Alpha variant (hCoV-19/Japan/QK002/2020); settings: Severe acute respiratory syndrome coronavirus 2, Vero C1008, compound concentration (for 5-ALA/SFC the 5-ALA concentration, ratio 4:1)

With `CCC(CC)COC(=O)[C@H](C)N[P@](=O)(OC[C@H]1O[C@@](C#N)(c2ccc3c(N)ncnn23)[C@H](O)[C@@H]1O)Oc1ccccc1` [remdesivir, Remdesivir] the IC50 [1] was 0.1 to 1 µM, the IC50 [2] was 0.1 to 1 µM and the IC50 [3] was 0.1 to 1 µM. For the same molecule, the IC50 [4] was 0.1 to 1 µM.

In the case of `NCC(=O)CCC(=O)O` [5-ALA, 5-aminolevulinic acid], the IC50 [1] is reported as 1590 µM, the viral inhibition [2] is reported as “no viral inhibition” and the IC50 [2] is reported as > 2000 µM. The viral inhibition [3] was “little viral inhibition”, the IC50 [3] was > 2000 µM and the IC50 [4] was 104 µM.
